Measurements taken from PubChem BioAssay (NCI).
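Growth conditions: 96-well plates. Treatment: test compound, 48 hours, 5 concentrations. Analysis: linear interpolation between bracketing concentrations; unreached endpoints set to highest concentration. At the GI50, growth is halved. TGI is the concentration that stops growth completely.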

Tests used:
Assay in all cases: inhibition of tumour cell growth, NCI panel, 48 h
HCT-116 colon = tested on: HCT-116 colon
MOLT-4 leukemia = tested on: MOLT-4 leukemia
MDA-MB-435 = tested on: MDA-MB-435
786-0 renal = tested on: 786-0 renal
PC-3 prostate = tested on: PC-3 prostate
SNB-75 CNS = tested on: SNB-75 CNS
SNB-19 CNS = tested on: SNB-19 CNS
HCC-2998 colon = tested on: HCC-2998 colon
OVCAR-5 ovarian = tested on: OVCAR-5 ovarian
MALME-3M melanoma = tested on: MALME-3M melanoma
CCRF-CEM leukemia = tested on: CCRF-CEM leukemia
UACC-257 melanoma = tested on: UACC-257 melanoma
HT29 colon = tested on: HT29 colon
ACHN renal = tested on: ACHN renal
SF-539 CNS = tested on: SF-539 CNS
SK-MEL-5 melanoma = tested on: SK-MEL-5 melanoma
SR leukemia = tested on: SR leukemia
EKVX NSCLC = tested on: EKVX NSCLC
MDA-MB-231 breast = tested on: MDA-MB-231 breast
RPMI-8226 leukemia = tested on: RPMI-8226 leukemia
CAKI-1 renal = tested on: CAKI-1 renal
DU-145 prostate = tested on: DU-145 prostate
IGROV1 ovarian = tested on: IGROV1 ovarian
MCF7 breast = tested on: MCF7 breast
A549 NSCLC = tested on: A549 NSCLC
HOP-62 NSCLC = tested on: HOP-62 NSCLC
SK-MEL-28 melanoma = tested on: SK-MEL-28 melanoma
HCT-15 colon = tested on: HCT-15 colon
SF-295 CNS = tested on: SF-295 CNS
SK-MEL-2 melanoma = tested on: SK-MEL-2 melanoma
NCI-H226 lung = tested on: NCI-H226 lung
OVCAR-3 ovarian = tested on: OVCAR-3 ovarian
SK-OV-3 ovarian = tested on: SK-OV-3 ovarian
UO-31 renal = tested on: UO-31 renal
U251 CNS = tested on: U251 CNS
SW-620 colon = tested on: SW-620 colon
KM12 colon = tested on: KM12 colon
NCI-H23 lung = tested on: NCI-H23 lung
HL-60(TB) leukemia = tested on: HL-60(TB) leukemia
HOP-92 NSCLC = tested on: HOP-92 NSCLC
OVCAR-4 ovarian = tested on: OVCAR-4 ovarian
BT-549 breast = tested on: BT-549 breast
NCI/ADR-RES ovarian = tested on: NCI/ADR-RES ovarian
UACC-62 melanoma = tested on: UACC-62 melanoma
K-562 leukemia = tested on: K-562 leukemia
RXF 393 renal = tested on: RXF 393 renal
TK-10 renal = tested on: TK-10 renal
COLO 205 colon = tested on: COLO 205 colon
LOX IMVI melanoma = tested on: LOX IMVI melanoma
NCI-H460 lung = tested on: NCI-H460 lung
HS 578T breast = tested on: HS 578T breast
SN12C renal = tested on: SN12C renal
T-47D breast = tested on: T-47D breast
A498 renal = tested on: A498 renal
SF-268 CNS = tested on: SF-268 CNS
M14 melanoma = tested on: M14 melanoma
OVCAR-8 ovarian = tested on: OVCAR-8 ovarian
NCI-H522 lung = tested on: NCI-H522 lung

In the case of CCO/C=N/C1=C(C#N)C(c2ccc(OC)cc2)c2sc3c(C)cccc3c2O1 (stereo unspecified), the GI50 (HCT-116 colon) is reported as 402 nM, the TGI (HCT-116 colon) is reported as over 38400 nM and the GI50 (MOLT-4 leukemia) is reported as 540 nM. It also gave a TGI (MOLT-4 leukemia) of over 24300 nM, a GI50 (MDA-MB-435) of 243 nM and a TGI (MDA-MB-435) of 677 nM. For the same molecule, the GI50 (786-0 renal) was 469 nM, the TGI (786-0 renal) was over 62400 nM and the GI50 (PC-3 prostate) was 494 nM. For the same molecule, the TGI (PC-3 prostate) was over 100000 nM, the GI50 (SNB-75 CNS) was 203 nM and the TGI (SNB-75 CNS) was 774 nM. The GI50 (SNB-19 CNS) was 518 nM, the TGI (SNB-19 CNS) was over 100000 nM and the GI50 (HCC-2998 colon) was 1070 nM. It also gave a TGI (HCC-2998 colon) of 7780 nM, a GI50 (OVCAR-5 ovarian) of 3160 nM and a TGI (OVCAR-5 ovarian) of over 100000 nM. It also gave a GI50 (MALME-3M melanoma) of 603 nM, a TGI (MALME-3M melanoma) of over 100000 nM and a GI50 (CCRF-CEM leukemia) of 459 nM. It also gave a TGI (CCRF-CEM leukemia) of over 100000 nM, a GI50 (UACC-257 melanoma) of over 43500 nM and a TGI (UACC-257 melanoma) of over 100000 nM. For the same molecule, the GI50 (HT29 colon) was 1140 nM, the TGI (HT29 colon) was 35500 nM and the GI50 (ACHN renal) was 699 nM. For the same molecule, the TGI (ACHN renal) was over 100000 nM, the GI50 (SF-539 CNS) was 316 nM and the TGI (SF-539 CNS) was 1910 nM. For the same molecule, the GI50 (SK-MEL-5 melanoma) was 500 nM, the TGI (SK-MEL-5 melanoma) was over 46500 nM and the GI50 (SR leukemia) was 376 nM. For the same molecule, the TGI (SR leukemia) was 7840 nM, the GI50 (EKVX NSCLC) was 932 nM and the TGI (EKVX NSCLC) was over 100000 nM. It also gave a GI50 (MDA-MB-231 breast) of 1570 nM, a TGI (MDA-MB-231 breast) of over 45000 nM and a GI50 (RPMI-8226 leukemia) of 417 nM. The TGI (RPMI-8226 leukemia) was 15100 nM, the GI50 (CAKI-1 renal) was 321 nM and the TGI (CAKI-1 renal) was over 100000 nM. It also gave a GI50 (DU-145 prostate) of 571 nM, a TGI (DU-145 prostate) of over 100000 nM and a GI50 (IGROV1 ovarian) of 515 nM. The TGI (IGROV1 ovarian) was over 100000 nM, the GI50 (MCF7 breast) was 347 nM and the TGI (MCF7 breast) was over 81200 nM. It also gave a GI50 (A549 NSCLC) of 898 nM, a TGI (A549 NSCLC) of over 100000 nM and a GI50 (HOP-62 NSCLC) of 552 nM. It also gave a TGI (HOP-62 NSCLC) of over 60300 nM, a GI50 (SK-MEL-28 melanoma) of 3420 nM and a TGI (SK-MEL-28 melanoma) of over 100000 nM. The GI50 (HCT-15 colon) was 447 nM, the TGI (HCT-15 colon) was over 38100 nM and the GI50 (SF-295 CNS) was 362 nM. For the same molecule, the TGI (SF-295 CNS) was over 37800 nM, the GI50 (SK-MEL-2 melanoma) was 1140 nM and the TGI (SK-MEL-2 melanoma) was over 100000 nM. The GI50 (NCI-H226 lung) was 457 nM, the TGI (NCI-H226 lung) was over 30700 nM and the GI50 (OVCAR-3 ovarian) was 394 nM. For the same molecule, the TGI (OVCAR-3 ovarian) was over 100000 nM, the GI50 (SK-OV-3 ovarian) was 794 nM and the TGI (SK-OV-3 ovarian) was over 100000 nM. The GI50 (UO-31 renal) was 562 nM, the TGI (UO-31 renal) was over 100000 nM and the GI50 (U251 CNS) was 510 nM. For the same molecule, the TGI (U251 CNS) was over 39500 nM, the GI50 (SW-620 colon) was 527 nM and the TGI (SW-620 colon) was over 100000 nM. The GI50 (KM12 colon) was 452 nM, the TGI (KM12 colon) was over 100000 nM and the GI50 (NCI-H23 lung) was 545 nM. For the same molecule, the TGI (NCI-H23 lung) was over 100000 nM, the GI50 (HL-60(TB) leukemia) was 290 nM and the TGI (HL-60(TB) leukemia) was 1730 nM. For the same molecule, the GI50 (HOP-92 NSCLC) was 851 nM, the TGI (HOP-92 NSCLC) was over 55200 nM and the GI50 (OVCAR-4 ovarian) was 1480 nM. It also gave a TGI (OVCAR-4 ovarian) of over 100000 nM, a GI50 (BT-549 breast) of 650 nM and a TGI (BT-549 breast) of over 58500 nM. The GI50 (NCI/ADR-RES ovarian) was 444 nM, the TGI (NCI/ADR-RES ovarian) was over 100000 nM and the GI50 (UACC-62 melanoma) was 514 nM. It also gave a TGI (UACC-62 melanoma) of over 100000 nM, a GI50 (K-562 leukemia) of 333 nM and a TGI (K-562 leukemia) of over 100000 nM. For the same molecule, the GI50 (RXF 393 renal) was 233 nM, the TGI (RXF 393 renal) was 707 nM and the GI50 (TK-10 renal) was 22700 nM. The TGI (TK-10 renal) was over 100000 nM, the GI50 (COLO 205 colon) was 818 nM and the TGI (COLO 205 colon) was 6690 nM. For the same molecule, the GI50 (LOX IMVI melanoma) was 665 nM, the TGI (LOX IMVI melanoma) was over 40300 nM and the GI50 (NCI-H460 lung) was 407 nM. The TGI (NCI-H460 lung) was over 100000 nM, the GI50 (HS 578T breast) was 350 nM and the TGI (HS 578T breast) was over 47800 nM. For the same molecule, the GI50 (SN12C renal) was 831 nM, the TGI (SN12C renal) was over 52300 nM and the GI50 (T-47D breast) was 561 nM. The TGI (T-47D breast) was over 100000 nM, the GI50 (A498 renal) was 291 nM and the TGI (A498 renal) was 1100 nM. The GI50 (SF-268 CNS) was 766 nM, the TGI (SF-268 CNS) was over 100000 nM and the GI50 (M14 melanoma) was 421 nM. The TGI (M14 melanoma) was over 45000 nM, the GI50 (OVCAR-8 ovarian) was 716 nM and the TGI (OVCAR-8 ovarian) was over 100000 nM. For the same molecule, the GI50 (NCI-H522 lung) was 426 nM and the TGI (NCI-H522 lung) was 10000 nM.
